Data set [1] in a line: Evaluation of foaming property by the inversion stirring method. Type of data set: physicochemical. Particulars: for Volume of foam (relative value): 0.5% (w/v) surfactant in PDB medium, 30 seconds after stirring, foam in the absence of the surfactant = 100; for Volume of foam relative to the volume of foam in the absence of the surfactant (in words): 0.5% (w/v) in PDB medium. How it is done: Each surfactant used in Test Example 2 was evaluated for its foaming properties by the inversion stirring method. 100 mL of a PDB medium non-supplemented or supplemented with 0.5% (w/v) (final concentration) of a surfactant was added to a graduated cylindrical container of 50 mm in diameter and then inversion-stirred for 300 seconds using a flat propeller while the propeller was inverted every 6 seconds at 1000 rpm. 30 seconds after the completion of stirring, the volume of foam in the medium was measured.

For data set [2], the system named is Rhizopus oryzae JCM14625 strain (=NBRC 5384). The data set can be described thus: Evaluation of ability to produce lactic acid-1 (production rate of lactic acid). Conditions: 0.5% (w/v) surfactant in PDB medium at spore germination; rate in the absence of the surfactant = 100. Type of data set: cell-based. How it is done: Specifically, the mycelia of a fungus of the genus Rhizopus were prepared by the method of Production Example 2 using the surfactant and then grown by the method of Production Example 3. 6.0 g of the obtained wet fungus bodies of the genus Rhizopus was inoculated to 40 mL of an inorganic culture medium for lactic acid production evaluation (composition: 8.0% glucose, 0.1% ammonium sulfate, 0.06% potassium dihydrogen phosphate, 0.025% magnesium sulfate heptahydrate, 0.009% zinc sulfate heptahydrate, and 5.0% calcium carbonate; all the concentrations mean % (w/v)) applied to a 200-mL Erlenmeyer flask, and then cultured at 35° C. with stirring at 170 rpm. The supernatant of the culture medium was recovered every 2 hours from 30 minutes after the fungus body inoculation. Glucose and lactic acid were quantified by the procedures described later in Reference Example 1. A relative value of the production rate of lactic acid was determined on the basis of the calculation method described in Reference Example 2.
Glucose and lactic acid were quantified using an HPLC apparatus LaChrom Elite (manufactured by Hitachi High-Technologies Corp.). The analytical column used was a carbohydrate/organic acid analysis column HPX-87H (7.8 mm I.D.×30 cm, manufactured by Bio-Rad Laboratories, Inc.) connected with a guard column Cation H (4.6 mm I.D.×3.0 cm, manufactured by Bio-Rad Laboratories, Inc.). Elution was performed under conditions involving 10 mM sulfuric acid as an eluent, a flow rate of 0.85 mL/min, and a column temperature of 50° C. Glucose and lactic acid were detected using a differential refractive index detector (RI detector) and a UV detector (detection wavelength: 210 nm), respectively. The standard samples used were glucose (distributor code: 049-31165, manufactured by Wako Pure Chemical Industries Ltd.), and lithium L-lactate (product number: L2250, manufactured by Sigma-Aldrich Inc.). Quantification was performed on the basis of concentration calibration curves prepared using these standard samples.
The supernatant sample of each culture medium to be subjected to HPLC analysis was appropriately diluted in advance with 37 mM sulfuric acid and then applied to DISMIC-13cp (0.20 μm cellulose acetate membrane, manufactured by […] Group) or MULTI SCREEN MNHV45 (0.45 μm Durapore membrane, manufactured by EMD Millipore) to remove insoluble matter.
The concentration of lactic acid (unit: g of lactic acid/L of medium) in the supernatant sample of each culture medium was measured according to Reference Example 1 and divided by a time (unit: hr) required for change in lactic acid concentration to calculate the production rate of lactic acid per unit time (unit: g of lactic acid/L/hr). In addition, a relative value to the production rate of lactic acid under control conditions in each Production Example was determined.

Data set [3] has the same test system. Kind of data set: LDH activity evaluation-1: mycelia prepared from spores in surfactant-supplemented PDB medium, LDH activity of fungus body extract. Conditions: for LDH activity (relative value): 0.5% (w/v) surfactant in PDB medium at spore germination, LDH activity in the absence of the surfactant = 100; for LDH activity compared with control fungus bodies (in words): 0.5% (w/v) surfactant at spore germination, versus medium non-supplemented with the surfactant. Type of data set: cell-based. How it is done: A loopful of a cryopreserved spore suspension sample (−80° C.) of a Rhizopus oryzae JCM14625 strain (=NBRC 5384) obtained from a culture collection Riken BioResource Center (BRC) was inoculated to a PDA medium (Difco Potato Dextrose Agar, manufactured by Becton, Dickinson and Company) and then statically cultured at 30° C. for from 7 to 10 days. After visual confirmation of hyphal growth and blackening at the ends of hyphae associated with sporulation, from 30 to 40 mL of saline was added thereto. Spores, together with hyphae, were collected into a 50-mL centrifugal tube with a lid (manufactured by Greiner bio-one) using a platinum loop and then vigorously mixed in the tube. The spore suspension thus mixed was filtered through 3GP100 cylindrical funnel-shaped glass filter (manufactured by Shibata Scientific Technology Ltd.). The resulting filtrate was used as a spore solution. The number of spores in the spore solution was measured using a hemocytometer (D=1/50 mm· 1/400 mm^2) after appropriate dilution with saline.
80 mL of a PDB medium non-supplemented or supplemented with 0.5% (w/v) (final concentration) of each surfactant described below was applied to a 200-mL baffled Erlenmeyer flask (manufactured by Asahi Glass Co., Ltd.). The Rhizopus oryzae spore suspension prepared in Production Example 1 was inoculated thereto at a dose of 1×10^3 spores/mL of the medium and then cultured at 27° C. for 3 days with stirring at 170 rpm. Since mycelia would remain on the filter, the cultures were filtered through a stainless sieve of 250 μm in mesh size (manufactured by AS ONE Corp.) sterilized in advance to recover fungus bodies onto the filter.
From3.0 to 4.0 g (wet weight) of the recovered fungus bodies was inoculated to 100 mL of an inorganic culture medium (composition: 10% glucose, 0.1% ammonium sulfate, 0.06% potassium dihydrogen phosphate, 0.025% magnesium sulfate heptahydrate, 0.009% zinc sulfate heptahydrate, and 5.0% calcium carbonate; all the concentrations mean % (w/v)) applied to a 500-mL Erlenmeyer flask, and then cultured at 27° C. for approximately 40 hours with stirring at 220 rpm. Subsequently, the cultures thus obtained by culture in the inorganic culture medium were filtered using a stainless screen filter holder (manufactured by EMD Millipore) sterilized in advance to recover fungus bodies onto the filter. On this filter holder, the fungus bodies were further washed with 100 mL of saline. The saline used in washing was removed by suction filtration. The obtained fungus bodies were used in the following LDH activity evaluation and evaluation of the ability to fermentatively produce lactic acid.
6.0 g of the wet fungus bodies of the genus Rhizopus obtained in Production Example 3 was inoculated to 40 mL of an inorganic culture medium for lactic acid production evaluation (composition: 8.0% glucose, 0.1% ammonium sulfate, 0.06% potassium dihydrogen phosphate, 0.025% magnesium sulfate heptahydrate, 0.009% zinc sulfate heptahydrate, and 5.0% calcium carbonate; all the concentrations mean % (w/v)) applied to a 200-mL Erlenmeyer flask, and then cultured at 35° C. with stirring at 170 rpm. After 4.5-hour culture of the fungus bodies of the genus Rhizopus with stirring, the fungus bodies were filtered using a stainless screen filter holder (manufactured by EMD Millipore) sterilized in advance to recover fungus bodies onto the filter. On this filter holder, the fungus bodies were further washed with 100 mL of saline. The saline used in washing was removed by suction filtration. 0.3 g of the obtained fungus bodies was recovered into a 3-mL disruption tube (manufactured by Yasui Kikai Corp.). Metal cone for 3 mL (manufactured by Yasui Kikai Corp.) was added to the tube, which was then capped and then frozen in liquid nitrogen. The frozen 3-mL disruption tube was applied to Multi-Beads Shocker (manufactured by Yasui Kikai Corp.). The fungus bodies were disrupted at 1700 rpm for 10 seconds.

The source of these data is US20150125915A1, “Method for Producing Lactic Acid” (Kao Corporation, priority 2012, published 2015).

With Polyoxyethylene (3) lauryl ether, the “Volume of foam (relative value)” value in data set [1] came to 250 relative value. Also, the “Production rate of lactic acid (relative value)” value in data set [2] is given as 203 relative value. For the same substance, the “LDH activity (relative value)” value in data set [3] stood at 170 relative value.

As to Polyoxyethylene (4) lauryl ether, the “Volume of foam (relative value)” value in data set [1] was 350 relative value. Further, the “Production rate of lactic acid (relative value)” value in data set [2] is listed as 171 relative value. For the same substance, the “LDH activity (relative value)” value in data set [3] was 214 relative value.

Consider “Polyoxyethylene (4) sorbitan monolaurate”, for which, in data set [1], the “Volume of foam relative to the volume of foam in the absence of the surfactant (in words)” value is listed as “twice or less” and the “Volume of foam (relative value)” value amounted to 150 relative value. Moreover, in data set [2], the “Production rate of lactic acid (relative value)” value was found to be 142 relative value. For the same substance, the “LDH activity (relative value)” value in data set [3] was 140 relative value.

On to Polyoxyethylene (5) lauryl ether, for which the “LDH activity (relative value)” value in data set [3] was determined as 112 relative value.

Regarding Polyoxyethylene (6) lauryl ether, in data set [3], the “LDH activity compared with control fungus bodies (in words)” value is recorded as “slightly lower LDH activity” and the “LDH activity (relative value)” value is reported as 93 relative value.

Regarding Polyoxyethylene (10) octyl phenyl ether, the “Volume of foam (relative value)” value in data set [1] stood at 2000 relative value. Also, the “Production rate of lactic acid (relative value)” value in data set [2] is 254 relative value. Besides, in data set [3], the “LDH activity compared with control fungus bodies (in words)” value is reported as “higher LDH activity” and the “LDH activity (relative value)” value was determined as 178 relative value.

For “Polyoxyethylene (20) sorbitan monolaurate”, the “Volume of foam (relative value)” value in data set [1] stood at 1350 relative value. The “Production rate of lactic acid (relative value)” value in data set [2] is given as 137 relative value. Moreover, in data set [3], the “LDH activity (relative value)” value is listed as 148 relative value.

As to Sodium deoxycholate, in data set [3], the “LDH activity compared with control fungus bodies (in words)” value is recorded as “higher LDH activity” and the “LDH activity (relative value)” value is given as 109 relative value.

Consider Sorbitan monooleate, for which, in data set [1], the “Volume of foam relative to the volume of foam in the absence of the surfactant (in words)” value is on record as “twice or less” and the “Volume of foam (relative value)” value is 100 relative value. In addition, the “Production rate of lactic acid (relative value)” value in data set [2] is given as 113 relative value. In data set [3], the “LDH activity compared with control fungus bodies (in words)” value is “higher LDH activity” and the “LDH activity (relative value)” value is recorded as 135 relative value.
